Test results taken from PMC4770093, “The role of kinetic context in apparent biased agonism at GPCRs” (Nature Communications, 2016).
“And” between values parts separate entries of the source, which are not always exact repeats. Equal entries are not always repeated. Where two headings read alike, the source gives them in different places.

Columns and labels:
[1] = molecular target: SNAP-tagged human dopamine D2L (Homo sapiens, UniProt P14416); assay: Tag-lite PPHT-red competition kinetic binding (HTRF); details: PPHT-red tracer, Tag-lite
Method: To terbium label the SNAP-CHO-D2L cells, cell culture medium was removed from the T175 cm^2 flasks containing confluent adherent SNAP-CHO-D2L cells. Twelve millilitres of Tag-lite labelling medium containing 100 nM of SNAP-Lumi4-Tb was added to the flask and incubated for 1 h at 37 °C under 5% CO2. Cells were then washed 2 × in 15 ml PBS (GIBCO, Invitrogen, Paisley, UK) to remove the excess of SNAP-Lumi4-Tb and detached using 5 ml of enzyme-free Hank's-based cell dissociation buffer (GIBCO, Invitrogen, Paisley, UK) and collected in a vial containing 5 ml of DMEM/Nutrient F-12 Ham, 2 mM glutamine supplemented 10% FCS. Cells were pelleted by centrifugation (5 min at 1,500 r.p.m.) and the pellets were frozen to −80 °C before preparation of membranes.
All subsequent steps described were conducted at 4 °C, to avoid receptor degradation. Twenty millilitres of wash buffer (10 mM HEPES and 10 mM EDTA pH 7.4) was added to the pellet of terbium-labelled cells (equivalent to 1 × t175 cm^2). […] The supernatant was discarded and the pellet was homogenized and centrifuged as described above in wash buffer. The final pellet was suspended in ice-cold 10 mM HEPES and 0.1 mM EDTA pH 7.4, at a concentration of 5–10 mg m^−1. Protein concentration was determined by the bicinchoninic acid assay using BSA as a standard and aliquots maintained at −80 °C until required. Before their use, the frozen membranes were thawed and the membranes suspended in the assay buffer at a membrane concentration of 0.1 mg m^−1.
GppNHp was included to remove the G protein-coupled population of receptors that can result in two binding sites in membrane preparations, because the Motulsky–Mahan model is only appropriate for ligands competing at a single site. […] Both fluorescent ligands and unlabelled compounds were diluted in the binding assay buffer.
Kinetics acquisitions at intervals of 20 s were recorded using the standard settings of the reader for HTRF measurements. […] Specific binding was determined by subtracting the nonspecific HTRF ratio from the total HTRF ratio.
To accurately determine association rate (kon) and dissociation rate (koff) values, the observed rate of association (kob) was calculated using at least four different concentrations of PPHT-red. The appropriate concentration of PPHT-red was incubated in a 384-well Optiplate with human SNAP-D2LR-CHO cell membranes (2 μg per well) in assay binding buffer at 37 °C (final assay volume, 40 μl). The degree of PPHT-red bound to the receptor was assessed at multiple time points by HTRF detection, to allow construction of association kinetic curves. The resulting data were globally fitted to the association kinetic model (equation (8)) to derive a single best-fit estimate for kon and koff as described under ‘Data analysis'.
On the same 384-well Optiplate plate, the kinetic parameters of unlabelled ligand were assessed using a competition kinetic binding assay. This approach involves the simultaneous addition of both fluorescent ligand and competitor to receptor preparation so that at t=0 all receptors are unoccupied. […] The degree of PPHT-red bound to the receptor was assessed at multiple time points by HTRF detection. Nonspecific binding was determined as the amount of HTRF signal detected in the presence of spiperone (1 μM) and was subtracted from each time point. Each time point was conducted on the same 384-well plate incubated at 37 °C with shaking (100 r.p.m.) after every cycle.
Data were globally fitted using equation (7), to simultaneously calculate kon and koff.

D2LR [2] = molecular target: T1, D2LR (Homo sapiens, UniProt P14416); assay: biochemical
Method: The cells were harvested in PBS containing 2 mM EDTA and centrifuged at 300 g for 3 min. The resulting pellet was resuspended in ice-cold assay buffer (20 mM HEPES, 100 mM NaCl, 6 mM MgCl2, 1 mM EGTA and 1 mM EDTA pH 7.4) and the centrifugation step was repeated. The intact cell pellet was then resuspended in assay buffer and homogenized using a Polytron homogenizer. After centrifugation (1,000 g, 10 min), the pellet was discarded and the supernatant was recentrifuged at 30,000 g for 1 h at 4 °C using a Sorvall Evolution RC ultracentrifuge (Thermo Scientific). The resulting pellet was resuspended in assay buffer and stored in 250 μl aliquots at −80 °C. Membrane protein concentration was determined using the method of Bradford.
All radioligand binding experiments were conducted at 37 °C in a 1-ml reaction volume in assay buffer (20 mM HEPES, 100 mM NaCl, 6 mM MgCl2, 1 mM EGTA and 1 mM EDTA pH 7.4) containing 100 μM GppNHp and 0.1% ascorbic acid. In all cases, nonspecific binding was determined in the presence of 10 μM haloperidol. […] Filter-bound radioactivity was measured by scintillation spectrometry after the addition of 3.5 ml of Ultima Gold (PerkinElmer) using a Tri-Carb 2900TR liquid scintillation counter (PerkinElmer).
where Y denotes the percentage-specific binding, Top and Bottom denote the maximal and minimal asymptotes, respectively, IC50 denotes the X-value when the response is midway between Bottom and Top, and nH denotes the Hill slope factor. IC50 values obtained from the inhibition curves were converted to Ki values using the Cheng and Prusoff equation[61].

D2LR [3] = molecular target: T1, D2LR; assay: ERK1/2 phosphorylation assay (Alphascreen SureFire); type: cell-based; parameters: expressed in transfected cells; details: for alpahscreen assay to detect pERK1/2, counts: agonist 10 μM (cariprazine 1 μM), single experiments n=1 to n=4
Method: ERK1/2 phosphorylation was measured using the Alphascreen SureFire ERK kit (PerkinElmer, Waltham, USA). Cells were seeded into 96-well plates at a density of 50,000 cells per well. After 5–7 h, cells were washed with PBS and incubated in serum-free DMEM overnight before assaying. Dose–response experiments were performed for each ligand at 37 °C in the presence of 0.1% ascorbic acid. […] The plate was shaken for 5 min at room temperature (RT) before transferring 5 μl of the lysates to a white 384-well Proxiplate (PerkinElmer, Waltham, USA). […] Plates were read using a Fusion-TM plate reader (PerkinElmer, Waltham, USA).

D2LR [4] = molecular target: T1, D2LR; assay: Inhibition of forskolin-induced cAMP production (BRET CAMYEL biosensor); details: for EC50: pEC50 cAMP; for Emax: relative to the maximal response of ropinirole; for Inhibition of cAMP production measured using a CAMYEL BRET biosensor, Net BRET: single experiments n = 1, 2, 3

T1 sequence (P14416 whole entry): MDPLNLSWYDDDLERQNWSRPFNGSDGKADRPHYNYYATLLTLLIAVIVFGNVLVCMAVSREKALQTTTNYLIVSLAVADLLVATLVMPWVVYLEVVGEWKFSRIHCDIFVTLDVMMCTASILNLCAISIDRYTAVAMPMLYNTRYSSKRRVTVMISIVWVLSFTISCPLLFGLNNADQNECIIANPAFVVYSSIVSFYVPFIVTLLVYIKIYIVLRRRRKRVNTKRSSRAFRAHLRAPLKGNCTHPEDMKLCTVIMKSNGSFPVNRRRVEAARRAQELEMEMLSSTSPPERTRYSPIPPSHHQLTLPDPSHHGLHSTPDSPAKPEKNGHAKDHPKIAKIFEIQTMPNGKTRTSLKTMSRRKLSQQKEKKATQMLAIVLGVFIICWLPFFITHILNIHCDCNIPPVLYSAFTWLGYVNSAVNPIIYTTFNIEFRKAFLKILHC
Sequence of SNAP-tagged human dopamine D2L (P14416 whole entry): as above

Which results are given for `CCCN(CCC)CCc1cccc2c1CC(=O)N2` [Ropinirole, ropinirole]?
koff ([1]; 100 μM GppNHp, 37 °C, read-out: koff (converted)): 0.0433 s⁻¹; Kd ([1]; read-out: pKd (affinity determined from kinetic parameters) (converted)): 1860 nM; Ki (D2LR [2]): 2510 nM; Log(τ/KA) pERK1/2 (D2LR [3]; 5 minute timepoint, Flp-In-CHO-D2LR): 8.44 ± 0.05; ΔLog(τ/KA) pERK1/2 (D2LR [3]; 5 minute timepoint, dopamine as reference agonist): -0.12 ± 0.07; alpahscreen assay to detect pERK1/2, counts (D2LR [3]; time 5 mins): 22.2889 counts and 25.6765 counts and 28.0112 counts; alpahscreen assay to detect pERK1/2, counts (D2LR [3]; time 7.5 mins): 28.0112 counts and 22.6774 counts and 25.7734 counts; alpahscreen assay to detect pERK1/2, counts (D2LR [3]; time 10 mins): 21.5421 counts and 16.2572 counts and 11.748 counts and 11.8417 counts; alpahscreen assay to detect pERK1/2, counts (D2LR [3]; time 20 mins): 4.739 counts and 4.229 counts and 3.491 counts and 4.291 counts; alpahscreen assay to detect pERK1/2, counts (D2LR [3]; time 30 mins): 2.723 counts and 2.242 counts and 2.289 counts and 2.713 counts; Log(τ/KA) cAMP (D2LR [4]): 7.67 ± 0.04; ΔLog(τ/KA) cAMP (D2LR [4]): -0.39 ± 0.06; EC50 (D2LR [4]; 2 min): 9.55 nM; EC50 (D2LR [4]; 5 min): 22.4 nM; EC50 (D2LR [4]; 10 min): 41.7 nM; EC50 (D2LR [4]; 15 min): 42.7 nM; EC50 (D2LR [4]; 30 min): 34.7 nM; EC50 (D2LR [4]; 45 min): 97.7 nM; EC50 (D2LR [4]; 60 min): 186 nM; EC50 (D2LR [4]; 75 min): 107 nM; EC50 (D2LR [4]; 90 min): 174 nM; Emax (D2LR [4]; read-out: Emax cAMP, 2 min): 100%; Emax (D2LR [4]; read-out: Emax cAMP, 5 min): 100%; Emax (D2LR [4]; read-out: Emax cAMP, 10 min): 100%; Emax (D2LR [4]; read-out: Emax cAMP, 15 min): 100%; Emax (D2LR [4]; read-out: Emax cAMP, 30 min): 100%; Emax (D2LR [4]; read-out: Emax cAMP, 45 min): 100%; Emax (D2LR [4]; read-out: Emax cAMP, 60 min): 100%; Emax (D2LR [4]; read-out: Emax cAMP, 75 min): 100%; Emax (D2LR [4]; read-out: Emax cAMP, 90 min): 100%; Inhibition of cAMP production measured using a CAMYEL BRET biosensor, Net BRET (D2LR [4]; time 2.21667 mins): 0.139 and 0.1472 and 0.1432; Inhibition of cAMP production measured using a CAMYEL BRET biosensor, Net BRET (D2LR [4]; time 2.58333 mins): 0.1633 and 0.1578 and 0.1547; Inhibition of cAMP production measured using a CAMYEL BRET biosensor, Net BRET (D2LR [4]; time 2.95 mins): 0.1708 and 0.1681 and 0.157; Inhibition of cAMP production measured using a CAMYEL BRET biosensor, Net BRET (D2LR [4]; time 3.31667 mins): 0.1659 and 0.1812 and 0.1714; Inhibition of cAMP production measured using a CAMYEL BRET biosensor, Net BRET (D2LR [4]; time 3.68333 mins): 0.1811 and 0.1789 and 0.1805; Inhibition of cAMP production measured using a CAMYEL BRET biosensor, Net BRET (D2LR [4]; time 4.05 mins): 0.191 and 0.1937 and 0.1853; Inhibition of cAMP production measured using a CAMYEL BRET biosensor, Net BRET (D2LR [4]; time 4.41667 mins): 0.1979 and 0.1996 and 0.185; Inhibition of cAMP production measured using a CAMYEL BRET biosensor, Net BRET (D2LR [4]; time 4.78333 mins): 0.2031 and 0.2011 and 0.1899; Inhibition of cAMP production measured using a CAMYEL BRET biosensor, Net BRET (D2LR [4]; time 5.15 mins): 0.2133 and 0.1934 and 0.1923; Inhibition of cAMP production measured using a CAMYEL BRET biosensor, Net BRET (D2LR [4]; time 5.51667 mins): 0.202 and 0.1988 and 0.1873; Inhibition of cAMP production measured using a CAMYEL BRET biosensor, Net BRET (D2LR [4]; time 5.88333 mins): 0.214 and 0.1997 and 0.2002; Inhibition of cAMP production measured using a CAMYEL BRET biosensor, Net BRET (D2LR [4]; time 6.25 mins): 0.2138 and 0.204 and 0.1926; Inhibition of cAMP production measured using a CAMYEL BRET biosensor, Net BRET (D2LR [4]; time 6.61667 mins): 0.2113 and 0.1972 and 0.1923; Inhibition of cAMP production measured using a CAMYEL BRET biosensor, Net BRET (D2LR [4]; time 6.98333 mins): 0.2032 and 0.2012 and 0.1937; Inhibition of cAMP production measured using a CAMYEL BRET biosensor, Net BRET (D2LR [4]; time 7.35 mins): 0.2141 and 0.1963 and 0.1945; Inhibition of cAMP production measured using a CAMYEL BRET biosensor, Net BRET (D2LR [4]; time 7.71667 mins): 0.2104 and 0.2011 and 0.1956; Inhibition of cAMP production measured using a CAMYEL BRET biosensor, Net BRET (D2LR [4]; time 8.08333 mins): 0.2099 and 0.2149 and 0.1931; Inhibition of cAMP production measured using a CAMYEL BRET biosensor, Net BRET (D2LR [4]; time 8.45 mins): 0.2126 and 0.2072 and 0.1885; Inhibition of cAMP production measured using a CAMYEL BRET biosensor, Net BRET (D2LR [4]; time 8.81667 mins): 0.2189 and 0.2083 and 0.199; Inhibition of cAMP production measured using a CAMYEL BRET biosensor, Net BRET (D2LR [4]; time 9.18333 mins): 0.2207 and 0.2105 and 0.1943; Inhibition of cAMP production measured using a CAMYEL BRET biosensor, Net BRET (D2LR [4]; time 9.55 mins): 0.212 and 0.2054 and 0.2079; Inhibition of cAMP production measured using a CAMYEL BRET biosensor, Net BRET (D2LR [4]; time 9.91667 mins): 0.2149 and 0.2049 and 0.2075; Inhibition of cAMP production measured using a CAMYEL BRET biosensor, Net BRET (D2LR [4]; time 10.2833 mins): 0.2152 and 0.2111 and 0.2029; Inhibition of cAMP production measured using a CAMYEL BRET biosensor, Net BRET (D2LR [4]; time 10.65 mins): 0.2279 and 0.2163 and 0.2038; Inhibition of cAMP production measured using a CAMYEL BRET biosensor, Net BRET (D2LR [4]; time 11.0167 mins): 0.2157 and 0.2032 and 0.2052; Inhibition of cAMP production measured using a CAMYEL BRET biosensor, Net BRET (D2LR [4]; time 11.3833 mins): 0.2205 and 0.2041 and 0.2034; Inhibition of cAMP production measured using a CAMYEL BRET biosensor, Net BRET (D2LR [4]; time 11.75 mins): 0.2254 and 0.2085 and 0.1983; Inhibition of cAMP production measured using a CAMYEL BRET biosensor, Net BRET (D2LR [4]; time 12.1167 mins): 0.2217 and 0.2066 and 0.2006; Inhibition of cAMP production measured using a CAMYEL BRET biosensor, Net BRET (D2LR [4]; time 12.4833 mins): 0.2324 and 0.2048 and 0.2074; Inhibition of cAMP production measured using a CAMYEL BRET biosensor, Net BRET (D2LR [4]; time 12.85 mins): 0.2281 and 0.2112 and 0.2008; Inhibition of cAMP production measured using a CAMYEL BRET biosensor, Net BRET (D2LR [4]; time 13.2167 mins): 0.2271 and 0.2125 and 0.2083; Inhibition of cAMP production measured using a CAMYEL BRET biosensor, Net BRET (D2LR [4]; time 13.5833 mins): 0.2211 and 0.208 and 0.2059; Inhibition of cAMP production measured using a CAMYEL BRET biosensor, Net BRET (D2LR [4]; time 13.95 mins): 0.2209 and 0.2042 and 0.208; Inhibition of cAMP production measured using a CAMYEL BRET biosensor, Net BRET (D2LR [4]; time 14.3167 mins): 0.2319
